Patent publication US11905284B2, “5,7-dihydro-pyrrolo-pyridine derivatives” (PFIZER INC., priority 2016, dated 2024)

Target: T1, Human M4 receptors (Homo sapiens, UniProt P08173)
T1 construct: expressed in transfected cells; host or cells: HEK293 cells with Promega GloSensor cAMP technology, stably expressing hM4
T1 sequence (P08173 1-479): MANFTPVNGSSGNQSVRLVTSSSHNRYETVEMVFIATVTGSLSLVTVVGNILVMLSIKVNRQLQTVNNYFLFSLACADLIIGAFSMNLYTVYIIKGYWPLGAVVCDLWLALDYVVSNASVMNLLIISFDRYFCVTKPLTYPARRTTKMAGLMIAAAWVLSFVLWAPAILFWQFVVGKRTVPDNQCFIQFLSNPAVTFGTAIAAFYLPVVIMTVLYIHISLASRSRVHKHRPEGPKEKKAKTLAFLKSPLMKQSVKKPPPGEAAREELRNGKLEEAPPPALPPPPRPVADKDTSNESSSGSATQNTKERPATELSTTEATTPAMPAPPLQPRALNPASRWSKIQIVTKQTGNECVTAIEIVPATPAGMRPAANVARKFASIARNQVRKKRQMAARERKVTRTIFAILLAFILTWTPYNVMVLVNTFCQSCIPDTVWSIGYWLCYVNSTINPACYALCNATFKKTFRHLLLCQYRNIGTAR
Experiment: M4 PAM cAMP assay (GloSensor)
Format: cell-based
Details: for Emax: HEK293, read-out: M4 glosensor EC50 Mean Asymptote Maximum (%); for EC50 / M4 glosensor EC50 Mean Asymptote Maximum (%): HEK293 GloSensor cells expressing hM4, with EC20 acetylcholine and isoproterenol, geometric mean of 2-4 determinations unless otherwise indicated; for M4 glosensor EC50 Mean Asymptote Maximum (%): Emax = maximum asymptote of fitted dose response curve
Method: The M4 PAM binding affinity for the compounds of the present invention was determined utilizing the following biological assay(s):
The M4 cAMP assay was designed to determine the potency and efficacy of muscarinic positive allosteric modulators (PAMs). Human M4 receptors were stably expressed in Human embryonic kidney (HEK293) cells expressed with the Promega GloSensor™ cAMP technology.
HEK293 GloSensor cells expressing hM4 cells were cultured in growth media containing DMEM with 10% FBS, 1% Penicillin/Streptomycin, 500 μg/mL G418, 200 μg/mL Hygomycin B, and 1% Glutamax. […] Plates were incubated at 37 degrees C. and 5% CO2 for use after 24 hours.
Compound Preparation for Agonist Screen:
Each compound was tested at 10 concentrations in duplicate per experiment. Compound plates are spotted with 0.2 μL/well agonist at 400 times the final assay concentration. Positive and negative controls for the compound alone agonist response was 10 μM acetylcholine (Sigma #A2661) and DMSO, respectively. EC20 of acetylcholine was also used to define PAM activities.
Promega GloSensor™ reagent (Promega #E1291) had previously been aliquotted. […] Stock solution was mixed. Culture media in cell plates was discarded, then replaced with 40 μL/well pre-warmed equilibration media, then incubated in the dark at room temperature for 2 hours. During the incubation, stimulation media containing agonist and EC20 acetylcholine was prepared. […] Compounds are now 5 times the final assay concentration. The plate was mixed using a plate agitator. At the end of the 2 hour GloSensor™ incubation, add 10 μL of the CO2-independent media containing agonist, EC20 acetylcholine and isoproterenol to the cell plate. Cell plate was then incubated for 10 minutes at room temperature, and then read using an EnVision plate reader (Perkin Elmer).
Data was exported from the EnVision plate reader. The percent effect for each well was determined using the mean values for the positive and negative controls on each plate for each read, specifically 100*(compound−negative control)/(positive control−negative control). Dose response curves were fitted to the compound percent effect data using a 4-parameter logistic fit model. Data was reported as EC50 and Emax, with the Emax as the maximum asymptote of the fitted dose response curve.

| SMILES | Emax [%] | EC50 [nM] | M4 glosensor EC50 Mean Asymptote Maximum (%) |
| --- | --- | --- | --- |
| Cc1cc(C)c2c(n1)CN(C(=O)C[C@H]1C[C@@H]1c1ccc3cncnc3c1)C2 (racemic) [Example 76, 1-(2,4-dimethyl-5,7-dihydro-6H-pyrrolo[3,4-b]pyridin-6-yl)-2-[trans-2-(quinazolin-7-yl)cyclopropyl]ethanone] | 45 | 1400 | – |
| Cc1nc2c(c(C)c1C)CN(C(=O)CC1CN(c3ccncn3)C1)C2 [Example 35, 2-[1-(pyrimidin-4-yl)azetidin-3-yl]-1-(2,3,4-trimethyl-5,7-dihydro-6H-pyrrolo[3,4-b]pyridin-6-yl)ethanone] | 87.9 | 2.56 | – |
| Cc1nc2c(c(C)c1C)CN(C(=O)CC1CN(c3ncns3)C1)C2 [Example 5, 2-[1-(1,2,4-Thiadiazol-5-yl)azetidin-3-yl]-1-(2,3,4-trimethyl-5,7-dihydro-6H-pyrrolo[3,4-b]pyridin-6-yl)ethanone] | 98.2 | 8.88 | – |
| Cc1nc2c(c(C)c1C)CN(C(=O)OC1CN(c3ncns3)C1)C2 [Example 64, 1-(1,2,4-thiadiazol-5-yl)azetidin-3-yl 2,3,4-trimethyl-5,7-dihydro-6H-pyrrolo[3,4-b]pyridine-6-carboxylate] | 88.5 | 40.2 | – |
| Cc1nc2c(c(C)c1C)CN(C(=O)C[C@@H]1C[C@H]1c1cccnc1)C2 (single isomer, unassigned) [Example 37, 2-[trans-2-(pyridin-3-yl)cyclopropyl]-1-(2,3,4-trimethyl-5,7-dihydro-6H-pyrrolo[3,4-b]pyridin-6-yl)ethanone] | – | 1790 | 85.8 |
| COCc1cc(C)c2c(n1)CN(C(=O)CC1CN(c3ccnc(C(F)(F)F)c3)C1)C2 [Example 7, 1-[2-(methoxymethyl)-4-methyl-5,7-dihydro-6H-pyrrolo[3,4-b]pyridin-6-yl]-2-{1-[2-(trifluoromethyl)pyridin-4-yl]azetidin-3-yl}ethanone] | 99.8 | 17.4 | – |
| Cc1nc2c(c(C)c1C)CN(C(=O)C[C@@H]1C[C@H]1c1cccnc1)C2 (single isomer, unassigned) [Example 38, 2-[trans-2-(pyridin-3-yl)cyclopropyl]-1-(2,3,4-trimethyl-5,7-dihydro-6H-pyrrolo[3,4-b]pyridin-6-yl)ethanone] | – | 15.9 | 111 |
| Cc1nc2c(c(C)c1Cl)CN(C(=O)CC1CN(c3cccnc3)C1)C2 [Example 13, 1-(3-Chloro-2,4-dimethyl-5,7-dihydro-6H-pyrrolo[3,4-b]pyridin-6-yl)-2-[1-(pyridin-3-yl)azetidin-3-yl]ethanone] | 101 | 2.04 | – |
| Cc1cc(C(F)F)nc2c1CN(C(=O)CC1CN(c3ccnc(C(F)(F)F)c3)C1)C2 [Example 6, 1-[2-(Difluoromethyl)-4-methyl-5,7-dihydro-6H-pyrrolo[3,4-b]pyridin-6-yl]-2-{1-[2-(trifluoromethyl)pyridin-4-yl]azetidin-3-yl}ethanone] | 92.4 | 9.75 | – |
| COCc1nc2c(c(C)c1C)CN(C(=O)CC1CN(c3cncnc3)C1)C2 [Example 40, 1-[2-(methoxymethyl)-3,4-dimethyl-5,7-dihydro-6H-pyrrolo[3,4-b]pyridin-6-yl]-2-[1-(pyrimidin-5-yl)azetidin-3-yl]ethanone] | 97.9 | 23.6 | – |
| COCc1nc2c(c(C)c1Cl)CN(C(=O)OC1CN(c3cccnc3)C1)C2 [Example 66, 1-(pyridin-3-yl)azetidin-3-yl 3-chloro-2-(methoxymethyl)-4-methyl-5,7-dihydro-6H-pyrrolo[3,4-b]pyridine-6-carboxylate] | 163 | 52.3 | – |
| COc1nc2c(c(C)c1C)CN(C(=O)CC1CN(c3cccnc3)C1)C2 [Example 28, 1-(2-methoxy-3,4-dimethyl-5,7-dihydro-6H-pyrrolo[3,4-b]pyridin-6-yl)-2-[1-(pyridin-3-yl)azetidin-3-yl]ethanone] | 116 | 21.6 | – |
| Cc1nc2c(c(C)c1C)CN(C(=O)CC1CN(c3ccnc(C(F)F)c3)C1)C2 [Example 46, 2-{1-[2-(difluoromethyl)pyridin-4-yl]azetidin-3-yl}-1-(2,3,4-trimethyl-5,7-dihydro-6H-pyrrolo[3,4-b]pyridin-6-yl)ethanone] | 106 | 9.53 | – |
| Cc1cc(C)c2c(n1)CN(C(=O)CC1CN(c3ccc(C(=O)N(C)C)cc3)C1)C2 [Example 70, 4-{3-[2-(2,4-dimethyl-5,7-dihydro-6H-pyrrolo[3,4-b]pyridin-6-yl)-2-oxoethyl]azetidin-1-yl}-N,N-dimethylbenzamide] | 95 | 184 | – |
| COCc1nc2c(c(C)c1Cl)CN(C(=O)CC1CN(c3ccc(F)nc3)C1)C2 [Example 49, 1-[3-chloro-2-(methoxymethyl)-4-methyl-5,7-dihydro-6H-pyrrolo[3,4-b]pyridin-6-yl]-2-[1-(6-fluoropyridin-3-yl)azetidin-3-yl]ethanone] | 101 | 11.2 | – |

Next, values leading:

| Emax [%] | EC50 [nM] | M4 glosensor EC50 Mean Asymptote Maximum (%) | SMILES |
| --- | --- | --- | --- |
| 47 | 95.7 | – | Cc1cc(C)c2c(n1)CN(C(=O)OC1CN(c3nncs3)C1)C2 [Example 62, 1-(1,3,4-thiadiazol-2-yl)azetidin-3-yl 2,4-dimethyl-5,7-dihydro-6H-pyrrolo[3,4-b]pyridine-6-carboxylate] |
| – | > 10000 | – | Cc1ccc([C@@H]2C[C@H]2CC(=O)N2Cc3nc(C)cc(C)c3C2)cn1 [Example 16, 1-(2,4-Dimethyl-5,7-dihydro-6H-pyrrolo[3,4-b]pyridin-6-yl)-2-[(1S,2R)-2-(6-methylpyridin-3-yl)cyclopropyl]ethanone] |
| 176 | 2880 | – | Cc1cc(C)c2c(n1)CN(C(=O)C[C@H]1C[C@@H]1c1ccccc1)C2 (racemic) [Example 77, 1-(2,4-dimethyl-5,7-dihydro-6H-pyrrolo[3,4-b]pyridin-6-yl)-2-[trans-2-phenylcyclopropyl]ethanone] |
| 71.8 | 209 | – | Cc1cc(C)c2c(n1)CN(C(=O)CC1Cc3ccccc3C1)C2 [Example 56, 2-(2,3-dihydro-1H-inden-2-yl)-1-(2,4-dimethyl-5,7-dihydro-6H-pyrrolo[3,4-b]pyridin-6-yl)ethanone] |
| 84.4 | 460 | – | COc1ccc(N2CC(CC(=O)N3Cc4nc(C)cc(C)c4C3)C2)cc1CC#N [Example 74, (5-{3-[2-(2,4-dimethyl-5,7-dihydro-6H-pyrrolo[3,4-b]pyridin-6-yl)-2-oxoethyl]azetidin-1-yl}-2-methoxyphenyl)acetonitrile] |
| 117 | 13.9 | – | COc1nc2c(c(C)c1Cl)CN(C(=O)CC1CN(c3cncnc3)C1)C2 [Example 26, 1-(3-chloro-2-methoxy-4-methyl-5,7-dihydro-6H-pyrrolo[3,4-b]pyridin-6-yl)-2-[1-(pyrimidin-5-yl)azetidin-3-yl]ethanone] |
| 90.6 | 537 | – | Cc1cc(C)c2c(n1)CN(C(=O)CC1CN(c3ccc(C4CC4)cc3)C1)C2 [Example 72, 2-[1-(4-cyclopropylphenyl)azetidin-3-yl]-1-(2,4-dimethyl-5,7-dihydro-6H-pyrrolo[3,4-b]pyridin-6-yl)ethanone] |
| 99.2 | 14.3 | – | COCc1cc(C)c2c(n1)CN(C(=O)CC1CN(c3ccnc(C(F)F)c3)C1)C2 [Example 50, 2-{1-[2-(difluoromethyl)pyridin-4-yl]azetidin-3-yl}-1-[2-(methoxymethyl)-4-methyl-5,7-dihydro-6H-pyrrolo[3,4-b]pyridin-6-yl]ethanone] |
| 78.7 | 25.7 | – | Cc1cc(C(F)F)nc2c1CN(C(=O)CC1CN(c3ccnc(OC(F)F)c3)C1)C2 [Example 25, 2-{1-[2-(difluoromethoxy)pyridin-4-yl]azetidin-3-yl}-1-[2-(difluoromethyl)-4-methyl-5,7-dihydro-6H-pyrrolo[3,4-b]pyridin-6-yl]ethanone] |
